Results taken from paper PMC8298264, “Function of cofactor Akirin2 in the regulation of gene expression in model human neutrophil-like HL60 cells” (Bioscience Reports, 2021).

Legend:
[1] = test system: AKR2; set-up: key: A: Very high confidence in the interaction; B: High confidence in the interaction; D: Moderate confidence in the interaction; details: AKR2-interacting proteins (IPs), physical interactome; ref https://doi.org/10.3390/vaccines8010077; cited from earlier work
Source text: Supplement BSR-2021-1120_supp1.zip/BSR-2021-1120_suppST4.xlsx, sheet "BPs related to AKR2-IPs" | column: Predicted Biological Score (PBS)

[2] = biological target: recAkirin2 (Homo sapiens, UniProt Q53H80); assay: Akirin2–IP interactions in HL60 lysate, c-Myc pull-down and dot blot; assay type: binding; details: recAkirin2 on c-Myc beads with HL60 lysate, dot blot; compared with SNRNP70, Student's t test P<0.05, n=2 biological replicates
Experimental: Some of the previously identified Akirin2 IPs were selected for analysis of Akirin2–IP interactions in human HL60 cells. The HL60 cells were pelleted, washed with cold PBS and proteins were extracted by adding 1 ml of cold TBS supplemented with protease inhibitor cocktail (Complete Mini EDTA-free, Roche, Switzerland). Cells were disrupted passing through a 20 G needle and sonicated (3 min/cycle, 3 cycles, 25°C) until lysate was clear. Lysate was centrifuged at 12000×g for 30 min at 4°C, after which the supernatant was collected, and protein concentration was determined using the BCA Protein Assay using BSA as the standard. The COOH-(Myc-([…])-DDK)-tagged recAkirin2 produced in human cells was used for interactions with the identified Akirin2–IPs, mediator of RNA polymerase II transcription subunit 16 (THRAP5; Q9Y2X0), phosphatidylinositol transfer protein-α isoform (PITPNA; Q00169), protein Wnt-2 (WNT2; P09544), and splicing factor 3a subunit 1 (SF3A1; Q15459). The U1 small nuclear ribonucleoprotein 70 kDa (SNRNP70; P08621) was used as protein negative control. […] Area and percent analysis of each chemiluminescence dot signal were obtained and analyzed using Fiji program (ImageJ 1.52n; https://downloads.tomsguide.com/ImageJ,0301-31184.html). […]

[3] = test system: human HL60 cells; assay: SWATH-MS proteomics, differential protein representation, akirin2 KO vs WT HL60 cells; assay type: cell-based
Experimental: Total proteins were extracted from WT and akirin2 KO HL60 cells using the AllPrep DNA/RNA/Protein Mini Kit (Qiagen) and protein concentration was determined using the BCA Protein Assay with BSA (Sigma–Aldrich) as standard. Protein extracts (150 µg per sample, n=3 biological replicates) from each WT and KO cells were trypsin digested using the FASP Protein Digestion Kit (Expedeon Ltd., Abcam, Cambridge, U.K.) and sequencing grade trypsin (Promega, Madison, WI, U.S.A.) following manufacturer’s recommendations. The resulting peptides were finally desalted on to OMIX Pipette tips C18 (Agilent Technologies, Santa Clara, CA, U.S.A.), dried down and stored at −20 °C until mass spectrometry analysis. […] Three micrograms of each protein digest from the three biological replicates of WT and akirin2 KO HL60 cells were used for the generation of the reference spectral ion library as part of the SWATH-MS analysis.
Peptides were eluted in a 120-min gradient from 5 to 30% solvent B in solvent A followed by 15-min gradient from 30 to 60% solvent B in solvent A (solvent A: 0.1% formic acid in water, solvent B: 0.1% formic acid in acetonitrile) and directly injected into the mass spectrometer for analysis. For IDA experiments, the mass spectrometer was set to scanning full spectra (350–1400 m/z) using 250 ms accumulation time per spectrum, followed by up to 50 MS/MS scans (100–1500 m/z). Candidate ions with a charge state between +2 and +5 counts per second above a minimum threshold of 100 were isolated for fragmentation. One MS/MS spectrum was collected for 100 ms, before adding those precursor ions to the exclusion list for 15 s (mass spectrometer operated by Analyst TF 1.6, AB Sciex). Dynamic background subtraction was turned off. MS/MS analyses were recorded in high-sensitivity mode with rolling collision energy on and a collision energy spread of 5. For SWATH quantitative analysis, six independent samples (three replicates from WT and akirin2 KO HL60 cells, 5 µg each) were subjected to the cyclic DIA of mass spectra using the SWATH variable windows calculator (V 1.0, AB Sciex) and the SWATH acquisition method editor (AB Sciex), similar to established methods. […] For these experiments, a 50-ms survey scan (350–1400 m/z) was acquired at the beginning of each cycle, and SWATH–MS/MS spectra were collected from 100–1500 m/z for 70 ms at high-sensitivity mode, resulting in a cycle time of 3.6 s. Collision energy for each window was determined according to the calculation for a charge +2 ion-centered upon the window with a collision energy spread of 15. To create a spectral library of all the detectable peptides in the samples, the IDA MS raw files were combined and subjected to database search in unison using ProteinPilot software v. 5.0.1 (AB Sciex) with the Paragon algorithm. […] The detected protein threshold was set at 0.05. An independent false discovery rate (FDR) analysis, using the target–decoy approach provided by Protein Pilot (AB Sciex; https://sciex.com/products/software/proteinpilot-software), was used to assess the quality of identifications. Positive identifications were considered when identified proteins reached 1% of global FDR. […] Global normalization was performed according to the Total Area Sums (TAS) of all detected proteins in the samples. […] Heatmaps were prepared using the Heatmapper (http://www.heatmapper.ca/expression/) with average linkage and Euclidean distance measurement method.

[4] = KO vs WT HL60 cells, sheet "Under-represented in KO"
[5] = SWATH-MS, akirin2 KO vs WT HL60 cells, sheet "Under-represented in KO"
[6] = SWATH-MS, akirin2 KO vs WT HL60 cells, under-represented in KO
[7] = akirin2 KO vs WT HL60 cells, sheet "Under-represented in KO"
[8] = SWATH-MS, akirin2 KO vs WT HL60 cells, over-represented in KO
[9] = Over-represented in KO, KO vs WT HL60 cells
[10] = akirin2 KO vs WT HL60 cells, sheet "Over-represented in KO"
[11] = KO vs WT, akirin2 KO vs WT HL60 cells, sheet "Under-represented in KO"

Sequence of recAkirin2 (Q53H80 whole entry): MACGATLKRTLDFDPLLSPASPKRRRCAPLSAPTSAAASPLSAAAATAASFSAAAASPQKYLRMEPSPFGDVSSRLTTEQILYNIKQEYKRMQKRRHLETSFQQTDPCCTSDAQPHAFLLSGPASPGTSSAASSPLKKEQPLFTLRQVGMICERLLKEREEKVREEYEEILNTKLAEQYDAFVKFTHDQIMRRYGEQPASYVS

WDYHV1
Predicted Biological Score (PBS) [1]: A

RGPD8
Predicted Biological Score (PBS) [1]: A

RGPD5
Predicted Biological Score (PBS) [1]: A

SNRNP70: U1 small nuclear ribonucleoprotein 70 kDa (P08621), protein negative control
Akirin2–IP interaction [2]: low interaction with Akirin2

sp¦Q92608¦DOCK2_HUMAN
Fold Change [3, 4]: 0.4625
Log (Fold Change) [3, 4]: -0.3349

sp¦Q86UX7¦URP2_HUMAN
Fold Change [3, 5]: 0.7476
Log (Fold Change) [3, 5]: -0.1263

RGPD3
Predicted Biological Score (PBS) [1]: A

sp¦Q9UNS2¦CSN3_HUMAN
Fold Change [3, 6]: 0.6926
Log (Fold Change) [3, 6]: -0.1595

sp¦P55809¦SCOT1_HUMAN
Fold Change [3, 7]: 0.6768
Log (Fold Change) [3, 7]: -0.1696

sp¦Q6P2Q9¦PRP8_HUMAN
Fold Change [3, 6]: 0.7423
Log (Fold Change) [3, 6]: -0.1294

sp¦P08621¦RU17_HUMAN
Fold Change [3, 7]: 0.6829
Log (Fold Change) [3, 7]: -0.1657

Cathepsin D
Fold Change [3, 8]: 2.358
Log (Fold Change) [3, 8]: 0.3725

sp¦Q13283¦G3BP1_HUMAN
Fold Change [3, 9]: 1.326
Log (Fold Change) [3, 9]: 0.1226

sp¦Q9NR31¦SAR1A_HUMAN
Fold Change [3, 7]: 0.4316
Log (Fold Change) [3, 7]: -0.3649

sp¦P31689¦DNJA1_HUMAN
Fold Change [3, 9]: 1.309
Log (Fold Change) [3, 9]: 0.117

sp¦Q96A72¦MGN2_HUMAN
Fold Change [3, 7]: 0.6271
Log (Fold Change) [3, 7]: -0.2026

sp¦P38646¦GRP75_HUMAN
Fold Change [3, 6]: 0.7142
Log (Fold Change) [3, 6]: -0.1462

sp¦O00231¦PSD11_HUMAN
Fold Change [3, 10]: 1.117
Log (Fold Change) [3, 10]: 0.04806

sp¦P25786¦PSA1_HUMAN
Fold Change [3, 9]: 1.271
Log (Fold Change) [3, 9]: 0.1042

sp¦P28070¦PSB4_HUMAN
Fold Change [3, 5]: 0.7608
Log (Fold Change) [3, 5]: -0.1188

sp¦Q8NE71¦ABCF1_HUMAN
Fold Change [3, 11]: 0.6253
Log (Fold Change) [3, 11]: -0.2039

sp¦Q9Y266¦NUDC_HUMAN
Fold Change [3, 9]: 1.364
Log (Fold Change) [3, 9]: 0.135

Vimentin
Fold Change [3, 8]: 3.958
Log (Fold Change) [3, 8]: 0.5975

sp¦P13861¦KAP2_HUMAN
Fold Change [3, 10]: 1.201
Log (Fold Change) [3, 10]: 0.07946

sp¦Q5T4S7¦UBR4_HUMAN
Fold Change [3, 7]: 0.241
Log (Fold Change) [3, 7]: -0.6179

sp¦P78527¦PRKDC_HUMAN
Fold Change [3, 7]: 0.4323
Log (Fold Change) [3, 7]: -0.3642

sp¦P11142¦HSP7C_HUMAN
Fold Change [3, 8]: 1.579
Log (Fold Change) [3, 8]: 0.1983

sp¦Q09666¦AHNK_HUMAN
Fold Change [3, 8]: 1.42
Log (Fold Change) [3, 8]: 0.1523

sp¦Q9Y4W6¦AFG32_HUMAN
Fold Change [3, 11]: 0.6186
Log (Fold Change) [3, 11]: -0.2086

sp¦P84077¦ARF1_HUMAN
Fold Change [3, 7]: 0.682
Log (Fold Change) [3, 7]: -0.1662

Chitinase-3-like protein 1
Fold Change [3, 8]: 1.904
Log (Fold Change) [3, 8]: 0.2797

sp¦P23284¦PPIB_HUMAN
Fold Change [3, 9]: 1.275
Log (Fold Change) [3, 9]: 0.1054

Eosinophil peroxidase
Fold Change [3, 8]: 5.162
Log (Fold Change) [3, 8]: 0.7128

sp¦P49137¦MAPK2_HUMAN
Fold Change [3, 9]: 1.268
Log (Fold Change) [3, 9]: 0.1031

sp¦P53007¦TXTP_HUMAN
Fold Change [3, 7]: 0.3964
Log (Fold Change) [3, 7]: -0.4018
